The text below walks through data of PMC12670427, “FDA Drug Repurposing Uncovers Modulators of Dopamine D2 Receptor Localization via Disruption of the NCS‑1 Interaction” (Journal of Medicinal Chemistry, 2025).

Where “and” joins values, the source holds several entries; their conditions need not be identical. Equal entries are not always repeated. Structures can show the parent of a compound that is named as a salt.

Data set [1] deals with T1, full-length NCS-1 (Homo sapiens, UniProt P62166).
T1 construct: For biophysical and crystallographic assays, full-length human NCS-1; made in house
Nature of the data set: Tryptophan intrinsic emission fluorescence binding to full-length NCS-1. The note with it: full-length NCS-1 5 μM, Trp emission at 330 nm, 35 °C, apparent Kd mean ± SD.
Procedure: To experimentally assess the binding of the FDA-approved drug library to NCS-1 we used tryptophan emission fluorescence. ,, Fluorescence intensity changes were measured at 330 nm in full-length NCS-1 upon increasing concentrations of the selected compounds (Figure A).

The conditions of data set [2]: known drug property listed in Supplementary Table 1, no reference given; cited from earlier work.
A short description of data set [3]: Solubility under the binding assay conditions. Format: physicochemical. The note with it: SPR running buffer; precipitated on the sensor chip.
Source text: (§1) Sensorgrams data were double-referenced and solvent-corrected using the BiaEvaluation X-100 software (Biacore, GE).
Data set [4] deals with T2, NCS-1ΔH10 (Homo sapiens, UniProt P62166).
T2 construct: NCS-1 construct lacking helix H10; made in house
Kind of data set: Intrinsic emission fluorescence binding to NCS-1ΔH10. The note with it: NCS-1ΔH10, intrinsic emission fluorescence; read-out: apparent binding affinity for H10-truncated NCS-1. The procedure: To determine the affinity of the FDA-approved drugs for full-length NCS-1 or NCS-1ΔH10, we used fluorescence techniques, since the presence of tryptophan (Trp) and tyrosine (Tyr) residues in NCS-1 sequence confers the protein intrinsic emission fluorescence when excited at 295 nm. Fluorescence intensity was monitored at 330 nm and 35 °C with a nano-DSF machine (nanoTemper). Protein concentration was set to 5 μM in a buffer containing Tris 50 mM pH 8.0, NaCl 125 mM, CaCl2 5 μM, 5% DMSO. Ligand concentration was increased up to 150 μM. Three independent experiments were performed for each protein:ligand ratio. […] In fact, compound FDA-02, 09, 11, 15, 21, and 22 were measured using SPR due to their high intrinsic emission at 330 nm. The apparent dissociation constant, K d, was obtained by using a least-squares algorithm to fit the recorded data to the equation previously described. Apparent K d values are reported as mean ± SD. ,
Prior crystallization, the contribution of the helix H10 to ligand binding was assessed in case this information could guide construct selection for structural studies. […] Given the initial high affinity of AZS for full-length NCS-1, the affinity for the H10-truncated construct was not measured. Initial crystallization screenings yielded to crystals of ATV in complex with full-length NCS-1. […]

For data set [5], the system named is D2R subcellular localization in HEK293 cells. Kind of data set: Sequential immunostaining for D2R localization (membrane vs cytoplasm). Format: cell-based, human. The note with it: for effect of trafficking tool compounds on NCS-1-induced D2R membrane localization: HEK293 cells, NCS-1 overexpression. Here is the method:
HEK293 cells were seeded on poly-D-lysine-coated glass coverslips in 24-well plates. Following transfection and drug treatments, cells were fixed with 2% paraformaldehyde (PFA) for 10 min and with 4% PFA for an additional 10 min at room temperature. Coverslips with fixed cells were then blocked in PBS containing 10% normal goat serum (NGS) for 30 min at room temperature.
After three PBS washes, fluorescence was fixed with 10% formaldehyde for 3 min. The second round started with a blocking step using PBS containing 10% NGS and 0.03% Triton X-100 for 1 h at room temperature. […] Coverslips were washed with PBS and mounted using ProLong Gold Antifade (Thermo Fisher Scientific) with Hoechst for nuclear counterstaining. Confocal images were acquired using either a Leica SP5 or a Nikon ECLIPSE Ti microscope, depending on the experiment. […] Individual confocal images were processed by setting intensity thresholds for the green (cytoplasmic) and red (membrane) channels. Fluorescence intensity was then measured separately for each channel, and the relative proportion of green to red signal was calculated for each image.

Data set [6] deals with T3, NCS-1/D2R interaction (Homo sapiens, UniProt P62166).
T3 construct: expressed in transfected cells; host or cells: HEK293
Nature of the data set: Proximity ligation assay (PLA) with flow cytometry. Type of data set: cell-based. The note with it: HEK293 cells, 5 μM, 16 h; vehicle set to 100%; mean ± SD.

The target of data set [7] is T1, full-length NCS-1. Nature of the data set: Surface plasmon resonance over CM4-immobilized NCS-1. Format: binding. The note with it: SPR, NCS-1 immobilized on CM4 chip, 25 °C; used for compounds that emit at 330 nm; read-out: NCS-1/FDA Affinity, Kd.
Source text: In these experiments, full-length NCS-1 was cross-linked to the surface of the biosensor, through its lysine amino acids, since these residues are concentrated on the upper surface and opposite to the hydrophobic crevice. This arrangement ensured that the hydrophobic crevice remained exposed to the solvent.
NCS-1 was immobilized on a CM4 sensor chip (Biacore, GE) following a standard amine coupling method. The carboxymethyl dextran surface of the flow cell 2 was activated by injecting a 1:1 mixture of 0.4 M EDC and 0.1 M NHS for 7 min. The protein was then covalently coupled to the surface via a 7 min injection at several dilutions, with a final concentration of 100 μg/mL in 10 mM sodium acetate, pH 4.0. Unreacted N-hydroxysuccinimide esters were quenched by a 7 min injection of 0.1 M ethanolamine-HCl pH 8.0, achieving an immobilization level of 5000 RUs. Flow cell 1, subjected to the same amine coupling procedure but without protein, served as a reference (Supplementary Figure 3A). Prior to use, 10 mM stock solutions of FDA-approved drugs were serially diluted to final concentration of 100 μM in running buffer. […] After dissociation, an additional wash step was performed using a 50% DMSO solution. Regeneration was not required.
as §1
Where [8] appears, read: read-out: NCS-1/FDA Affinity, Kd.

T1 sequence (P62166 whole entry): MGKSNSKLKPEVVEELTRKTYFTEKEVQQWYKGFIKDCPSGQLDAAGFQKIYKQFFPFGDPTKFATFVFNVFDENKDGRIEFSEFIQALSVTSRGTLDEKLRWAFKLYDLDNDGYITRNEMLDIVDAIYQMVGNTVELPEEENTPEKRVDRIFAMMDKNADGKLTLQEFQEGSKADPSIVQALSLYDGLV
T3 sequence (P62166 2-190 limits assumed): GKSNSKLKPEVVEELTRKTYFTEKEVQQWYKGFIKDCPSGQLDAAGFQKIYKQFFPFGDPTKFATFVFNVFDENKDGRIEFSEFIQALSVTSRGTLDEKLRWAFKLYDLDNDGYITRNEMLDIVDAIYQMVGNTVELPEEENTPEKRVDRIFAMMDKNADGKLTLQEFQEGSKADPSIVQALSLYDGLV
T2 sequence (P62166 1-177 limits assumed, stated change not applied): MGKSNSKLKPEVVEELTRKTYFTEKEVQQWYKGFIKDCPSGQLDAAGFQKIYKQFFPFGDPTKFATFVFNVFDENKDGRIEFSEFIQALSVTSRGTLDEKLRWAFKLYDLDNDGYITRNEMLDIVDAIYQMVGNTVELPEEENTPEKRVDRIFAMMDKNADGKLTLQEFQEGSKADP

Turning to `CCN(CC)CCCC(C)Nc1ccnc2cc(Cl)ccc12` (centres unmarked) [Chloroquine], in data set [1] (setting [8]), the Kd came to 200 ± 35 µM. Moreover, the “Crossing the blood-brain barrier” value in data set [2] was “Yes”. As for `O=C1Cc2cc(CCN3CCN(c4nsc5ccccc45)CC3)c(Cl)cc2N1` [ziprasidone], the “solubility under the experimental conditions” value in data set [3] was “low solubility”.

Turning to `Cc1ccc(NC(=O)c2ccc(CN3CCN(C)CC3)cc2)cc1Nc1nccc(-c2cccnc2)n1` [Imatinib], the “Crossing the blood-brain barrier” value in data set [2] is reported as “Yes”. In the case of `CS(=O)(=O)CCNCc1ccc(-c2ccc3ncnc(Nc4ccc(OCc5cccc(F)c5)c(Cl)c4)c3c2)o1` [Lapatinib], the “Crossing the blood-brain barrier” value in data set [2] was “No”.

Regarding `CN1C[C@H](C(=O)N[C@]2(C)O[C@@]3(O)[C@@H]4CCCN4C(=O)[C@H](Cc4ccccc4)N3C2=O)C=C2c3cccc4[nH]cc(c34)C[C@H]21` [Ergotamine], the Kd in data set [1] (NCS-1/FDA Affinity, Kd) came to 122 ± 18 µM. In addition, the “Crossing the blood-brain barrier” value in data set [2] is listed as “No”. Regarding `N#Cc1ccc2[nH]cc(CCCCN3CCN(c4ccc5oc(C(N)=O)cc5c4)CC3)c2c1` [Vilazodone], the Kd was 8 µM in data set [4]; 34 µM and 34.4 µM in data set [1] (setting [8]). Also, the “Crossing the blood-brain barrier” value in data set [2] is listed as “Yes”. Further, the “effect on D2R localization in the absence of NCS-1 overexpression” value in data set [5] (HEK293 cells transfected with D2R alone) was “affected D2R localization”.

With `COC(=O)N[C@H](C(=O)N1CCC[C@H]1c1nc(-c2ccc(-c3ccc(-c4c[nH]c([C@@H]5CCCN5C(=O)[C@@H](NC(=O)OC)C(C)C)n4)cc3)cc2)c[nH]1)C(C)C` [Daclatasvir], the Kd in data set [1] (setting [8]) is 7.2 ± 0.1 µM. The “PPI modulation (PLA): NCS-1/D2R binding relative to vehicle-treated controls” value in data set [6] was found to be 114.6 ± 17.4%. In addition, the “Crossing the blood-brain barrier” value in data set [2] is on record as “No”. As to `CC(C)CN(C[C@@H](O)[C@H](Cc1ccccc1)NC(=O)O[C@H]1CO[C@H]2OCC[C@H]21)S(=O)(=O)c1ccc(N)cc1` [Darunavir], the “Crossing the blood-brain barrier” value in data set [2] is on record as “No”. As for `CCCCCCCN(CC)CCCC(O)c1ccc(NS(C)(=O)=O)cc1` (centres unmarked) [Ibutilide fumarate], in data set [1], the “NCS-1/FDA Affinity, Kd” value was “No affinity”. The “Crossing the blood-brain barrier” value in data set [2] is on record as “No”. Take `CCCN(CCC)CCc1cccc2c1CC(=O)N2` [Ropinirole]: the “effect of trafficking tool compounds on NCS-1-induced D2R membrane localization” value (“effect of trafficking tool compounds” below) in data set [5] is given as “reversed this effect”.

Regarding `O=C(N/N=C/c1ccc(O)c(O)c1)c1cc2ccccc2cc1O` [Dynasore], in data set [5], the “effect of trafficking tool compounds” value is listed as “did not significantly affect”. In the case of `CCN(CCO)CCCC(C)Nc1ccnc2cc(Cl)ccc12` (centres unmarked) [Hydroxychloroquine sulfate], in data set [1] (setting [8]), the Kd was found to be 353 ± 138 µM. The “Crossing the blood-brain barrier” value in data set [2] is “Yes”. With `OCc1cc(C(O)CNCCCCCCOCCCCc2ccccc2)ccc1O` (centres unmarked) [Salmeterol], the Kd in data set [7] was determined as 68.2 ± 17.9 µM. In addition, the “PPI modulation (PLA): NCS-1/D2R binding relative to vehicle-treated controls” value in data set [6] is given as 96.5 ± 17.2%. Also, the “Crossing the blood-brain barrier” value in data set [2] is “Yes”. As for `CC(C)c1c(C(=O)Nc2ccccc2)c(-c2ccccc2)c(-c2ccc(F)cc2)n1CC[C@@H](O)C[C@@H](O)CC(=O)O` [Atorvastatin], the Kd was 17 µM in data set [4]; 53 µM and 53.1 µM in data set [1] (setting [8]).

With `CCCCCCOC(=O)NC(=N)c1ccc(NCc2nc3cc(C(=O)N(CCC(=O)OCC)c4ccccn4)ccc3n2C)cc1` [Dabigatran etexilate], the Kd in data set [1] (setting [8]) amounted to 13.2 ± 2.5 µM. For the same compound, the “Crossing the blood-brain barrier” value in data set [2] is on record as “No”.

As for `C[C@H]1CCC/C=C/[C@@H]2C[C@H](O)C[C@H]2[C@H](O)/C=C/C(=O)O1` [BFA, Brefeldin A], in data set [5], the “effect of trafficking tool compounds” value is on record as “prevented the NCS-1-induced increase in membrane D2R”.

In the case of `Cc1c(O)cccc1C(=O)N[C@@H](CSc1ccccc1)[C@H](O)CN1C[C@H]2CCCC[C@H]2C[C@H]1C(=O)NC(C)(C)C` [Nelfinavir], in data set [1] (setting [8]), the Kd was 47.6 ± 4.1 µM. Also, the “PPI modulation (PLA): NCS-1/D2R binding relative to vehicle-treated controls” value in data set [6] worked out at 112.0 ± 12.7%. The “Crossing the blood-brain barrier” value in data set [2] is “No”. Turning to `CCOc1nc2cccc(C(=O)OCc3oc(=O)oc3C)c2n1Cc1ccc(-c2ccccc2-c2noc(=O)[nH]2)cc1` [Azilsartan medoxomil], the “Crossing the blood-brain barrier” value in data set [2] is given as “Low penetrance”.

Take `CNCCCC1c2ccccc2C=Cc2ccccc21` [Protriptyline hydrochloride]: the “Crossing the blood-brain barrier” value in data set [2] was “Yes”. For the compound Capreomycin sulfate, in data set [5] (HEK293 cells cotransfected with D2R and NCS-1, 5 μM, 2 h), the “effect on NCS-1-induced D2R membrane localization” value is reported as “modest effect”. In the case of `C[C@]12CC[C@@H]3c4ccc(O)cc4C[C@@H](CCCCCCCCC[S+]([O-])CCCC(F)(F)C(F)(F)F)[C@H]3[C@@H]1CC[C@@H]2O` (some centres unmarked) [Faslodex], the “Crossing the blood-brain barrier” value in data set [2] was “No”.

For the compound `CCN(CC)CCNC(=O)c1c(C)[nH]c(/C=C2\C(=O)Nc3ccc(F)cc32)c1C` [Sunitinib], the “Crossing the blood-brain barrier” value in data set [2] is “No”. `CCN(CC)CCOc1ccc(C(=C(Cl)c2ccccc2)c2ccccc2)cc1` [Clomiphene citrate]: the “Crossing the blood-brain barrier” value in data set [2] is “No”.
